According to US20240059753A1, “COMPOSITIONS INCLUDING MULTI-AGONIST PEPTIDES AND METHODS OF MANUFACTURE AND USE” (Pep2Tango Therapeutics Inc., priority 2022, published 2024):
Structures can show the parent of a compound that is named as a salt. Numbered stars: 1 amine (or outer) side, 2 acyl side, 3 side chain; on linkers, the order of the positions; unused ones are H or OH. Bridge positions count the residues as written; N and C are the ends. Square brackets hold non-standard residues; d marks the D form. Side chains are listed from the residue outwards. * marks the point of attachment. C20 diacid = O=C(O)CCCCCCCCCCCCCCCCCCC(=O)*; C18 diacid = O=C(O)CCCCCCCCCCCCCCCCC(=O)*; γGlu = O=C(O)[C@H](CCC(=O)[*:2])N[*:1]; AEEA = NCCOCCOCC(=O)O; Aib = CC(C)(N)C(=O)O

Key:
Human GLP-1R = Human GLP-1R (Homo sapiens, UniProt P43220); experiment: GPCR cell-based cAMP assay, human GLP-1 receptor; parameters: expressed in transfected cells; host or cells: CHO-K1, stably transfected; details: stably transfected CHO-Kl cells, 0.1% casein
Human GLP-1R, sequence (P43220 24-463): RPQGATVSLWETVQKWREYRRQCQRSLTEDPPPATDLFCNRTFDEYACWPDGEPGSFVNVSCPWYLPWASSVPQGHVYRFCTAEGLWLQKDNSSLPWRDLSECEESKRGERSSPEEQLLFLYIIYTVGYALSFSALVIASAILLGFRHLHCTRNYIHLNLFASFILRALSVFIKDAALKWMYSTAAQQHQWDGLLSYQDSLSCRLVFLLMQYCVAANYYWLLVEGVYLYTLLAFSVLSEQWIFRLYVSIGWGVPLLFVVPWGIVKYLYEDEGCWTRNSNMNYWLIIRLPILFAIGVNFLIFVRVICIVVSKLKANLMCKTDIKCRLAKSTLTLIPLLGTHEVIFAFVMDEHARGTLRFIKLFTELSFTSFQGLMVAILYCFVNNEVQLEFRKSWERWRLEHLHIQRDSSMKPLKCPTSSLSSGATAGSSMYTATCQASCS
Procedure: (§1) Experimental protocol: Cells were seeded in a total volume of 20 μL into white walled, 384-well microplates and incubated at 37° C. overnight prior to testing. Prior to testing cell plating media was exchanged with 10 μL of Assay buffer (HBSS+10 mM HEPES). All compounds were run in assay buffer containing 0.1% casein. Briefly, intermediate dilution of sample stocks was performed to generate 4× sample in assay buffer. 5 μL of 4× sample was added to cells and incubated at 37° C. for 30 minutes. Final assay vehicle concentration was 1%. […] Microplates were read following signal generation with PerkinElmer Envision instrument for chemiluminescent signal detection.
(§2) The results are expressed as a percent efficacy relative to the maximum response of the control ligand.

Human CalcitoninR = target: T1, Human CalcitoninR (Homo sapiens, UniProt P30988); experiment: GPCR cell-based cAMP assay, human calcitonin receptor; details: stably transfected CHO-Kl cells, 0.1% casein
T1 construct: expressed in transfected cells; host or cells: CHO-K1, stably transfected
T1 sequence (P30988 25-474): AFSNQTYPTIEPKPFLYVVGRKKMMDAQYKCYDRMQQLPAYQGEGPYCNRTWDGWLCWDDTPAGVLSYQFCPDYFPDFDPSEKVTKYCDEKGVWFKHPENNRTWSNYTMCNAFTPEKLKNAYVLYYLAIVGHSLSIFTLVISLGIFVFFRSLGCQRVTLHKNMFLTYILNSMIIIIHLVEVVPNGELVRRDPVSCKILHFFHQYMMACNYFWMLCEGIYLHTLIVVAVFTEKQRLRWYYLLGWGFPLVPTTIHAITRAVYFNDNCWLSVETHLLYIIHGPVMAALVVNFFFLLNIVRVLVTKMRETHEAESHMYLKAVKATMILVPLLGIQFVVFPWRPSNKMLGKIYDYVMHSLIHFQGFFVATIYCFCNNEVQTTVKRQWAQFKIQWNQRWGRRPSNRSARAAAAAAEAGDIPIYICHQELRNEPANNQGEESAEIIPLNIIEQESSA
Procedure: as §1, §2

Human Calc/RAMP3R (AMY3) = target: T2, Human Calc/RAMP3R (AMY3) (Homo sapiens, UniProt O60896+P30988); experiment: GPCR cell-based cAMP assay, human AMY3 receptor; details: stably transfected CHO-Kl cells, 0.1% casein
T2 construct: expressed in transfected cells; host or cells: CHO-K1, stably transfected
T2 sequence (P30988 25-474): T1 sequence (P30988 25-474)
T2 sequence (O60896 24-148 partner): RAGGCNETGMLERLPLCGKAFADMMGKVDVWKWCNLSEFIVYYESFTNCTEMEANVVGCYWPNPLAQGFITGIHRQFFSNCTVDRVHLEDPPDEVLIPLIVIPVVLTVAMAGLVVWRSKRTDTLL
Procedure: as §1, §2

Human GIPR = target: T3, Human GIPR (Homo sapiens, UniProt P48546); experiment: GPCR cell-based cAMP assay, human GIP receptor; details: stably transfected CHO-Kl cells, 0.1% casein
T3 construct: expressed in transfected cells; host or cells: CHO-K1, stably transfected
T3 sequence (P48546 22-466): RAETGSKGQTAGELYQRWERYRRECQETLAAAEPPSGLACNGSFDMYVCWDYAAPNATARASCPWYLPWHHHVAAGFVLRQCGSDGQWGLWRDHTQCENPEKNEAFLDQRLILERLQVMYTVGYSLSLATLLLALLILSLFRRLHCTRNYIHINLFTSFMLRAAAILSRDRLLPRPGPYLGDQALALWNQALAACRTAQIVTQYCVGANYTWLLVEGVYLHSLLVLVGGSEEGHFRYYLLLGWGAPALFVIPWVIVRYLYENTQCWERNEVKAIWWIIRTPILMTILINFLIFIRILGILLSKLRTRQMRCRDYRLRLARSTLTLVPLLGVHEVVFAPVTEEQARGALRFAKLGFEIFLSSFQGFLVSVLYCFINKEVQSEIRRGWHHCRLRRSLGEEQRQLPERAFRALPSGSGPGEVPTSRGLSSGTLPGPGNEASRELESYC
Procedure: as §1, §2

4 h fasted mice = experiment: Blood glucose after single administration of peptides; type: in vivo
Procedure: Differences were considered statistically significant at p<0.05. Data analysis was carried out with GraphPad software (GraphPad Prism).

## CC[C@H](C)[C@H](NC(=O)[C@H](CC(C)C)NC(=O)[C@H](Cc1c[nH]c2ccccc12)NC(=O)[C@H](CCC(N)=O)NC(=O)[C@@H](NC(=O)[C@H](Cc1ccccc1)NC(=O)[C@H](C)NC(=O)[C@H](CCC(N)=O)NC(=O)[C@H](CCC(N)=O)NC(=O)[C@H](C)NC(=O)[C@@H](NC(=O)[C@H](CCCCN)NC(=O)[C@H](CC(=O)O)NC(=O)[C@H](CC(C)C)NC(=O)C(C)(C)NC(=O)[C@@H](NC(=O)[C@H](CO)NC(=O)[C@H](Cc1ccc(O)cc1)NC(=O)[C@H](CC(=O)O)NC(=O)[C@H](CO)NC(=O)[C@@H](NC(=O)[C@H](Cc1ccccc1)NC(=O)[C@@H](NC(=O)CNC(=O)[C@H](CCC(=O)O)NC(=O)C(C)(C)NC(=O)[C@@H](N)Cc1ccc(O)cc1)[C@@H](C)O)[C@@H](C)O)[C@@H](C)CC)[C@@H](C)CC)C(C)C)C(=O)N[C@@H](C)C(=O)NCC(=O)NCC(=O)N1CCC[C@H]1C(=O)N[C@@H](CO)C(=O)N[C@@H](CCCCNC(=O)COCCOCCNC(=O)COCCOCCNC(=O)CC[C@H](NC(=O)CCCCCCCCCCCCCCCCC(=O)O)C(=O)O)C(=O)N[C@H]1CSSC[C@@H](C(=O)N[C@@H](C)C(=O)N[C@H](C(=O)N[C@@H](CCC(N)=O)C(=O)N[C@@H](CCCNC(=N)N)C(=O)N[C@@H](CC(C)C)C(=O)N[C@@H](C)C(=O)N[C@@H](CCC(=O)O)C(=O)N[C@@H](Cc2ccccc2)C(=O)N[C@@H](CC(C)C)C(=O)N[C@@H](CCCNC(=N)N)C(=O)N[C@@H](Cc2c[nH]cn2)C(=O)N[C@@H](CO)C(=O)N[C@@H](CO)C(=O)N[C@@H](CC(N)=O)C(=O)N[C@@H](CC(N)=O)C(=O)N[C@@H](Cc2ccccc2)C(=O)NCC(=O)N2CCC[C@H]2C(=O)N[C@H](C(=O)N[C@@H](CC(C)C)C(=O)N2CCC[C@H]2C(=O)N2CCC[C@H]2C(=O)N[C@H](C(=O)N[C@@H](CC(N)=O)C(=O)N[C@H](C(=O)NCC(=O)N[C@@H](CO)C(=O)N[C@@H](Cc2c[nH]cn2)C(=O)N[C@H](C(=O)N2CCC[C@H]2C(N)=O)[C@@H](C)O)C(C)C)[C@@H](C)O)[C@@H](C)CC)[C@@H](C)O)NC(=O)[C@H]([C@@H](C)O)NC(=O)[C@H](C)NC(=O)[C@H]([C@@H](C)O)NC(=O)[C@H](CC(N)=O)NC1=O [SEQ ID NO. 55, Y-Aib-E-G-T-F-T-S-D-Y-S-I-Aib-LDKIAQQAFVQWLIAGGPSK*-CNTATCATQRLAEFLRHSSNNFGPILPPTNVGSHTP-NH2-acetate salt (wherein K* = Lys(AEEAc-AEEAc-γ-Glu-17-carboxyheptadecanoyl))]
Human GLP-1R
  EC50: 0.324 nM
Human CalcitoninR
  EC50: 44.2 nM
Human Calc/RAMP3R (AMY3)
  EC50: 46.1 nM
Human GIPR
  EC50: 0.019 nM

## Cagrilintide [reference compound]
4 h fasted mice; 4 h fasted mice, single s.c. 10 nmol/Kg, 120 min after injection, mean ± SEM
  Blood glucose, 120 min: 189.7 ± 5.52 mg/dL
4 h fasted mice; 4 h fasted mice, single s.c. 10 nmol/Kg, 240 min after injection, mean ± SEM
  Blood glucose, 240 min: 164.6 ± 6.48 mg/dL
4 h fasted mice; 4 h fasted mice, single s.c. 10 nmol/Kg, Time 0 (baseline), mean ± SEM
  Blood glucose, Time 0: 169.0 ± 3.45 mg/dL
4 h fasted mice; single s.c. 10 nmol/kg
  Significantly reduced blood glucose at 120 min and 240 min compared to time 0: not

## Y[Aib]EGTFTSDYSI[Aib]LDKIAQQAFVQWLIAGGPSASHLSTAVLGK([AEEA-AEEA-γGlu-C18 diacid])LS[Aib]ELHKLEDYPRTDVGAESP-NH2 [SEQ ID NO. 57, Y-Aib-E-G-T-F-T-S-D-Y-S-I-Aib-LDKIAQQAFVQWLIAGGPSASHLSTAVLGK*-L-S-Aib-E-L-H-K-L-E-D-Y-P-R-T-D-V-G-A-E-S-P-NH2-acetate salt (wherein K* = Lys(AEEAc-AEEAc-γ-Glu-17-carboxyheptadecanoyl))]
Human GLP-1R
  EC50: 0.724 nM
Human CalcitoninR
  EC50: 0.044 nM
Human Calc/RAMP3R (AMY3)
  EC50: 0.152 nM
Human GIPR
  EC50: 0.047 nM

## Y[Aib]EGTFTSDYSI[Aib]LDKIAQQAFVQWLIAGGPSKCNTATCATQK([AEEA-AEEA-γGlu-C18 diacid])LAEFLRHSSNNFGPILPPTNVGSHTP-NH2 (disulfide 34-39 (inferred)) [SEQ ID NO. 56, Y-Aib-E-G-T-F-T-S-D-Y-S-I-Aib-LDKIAQQAFVQWLIAGGPSKCNTATCATQK*-LAEFLRHSSNNFGPILPPTNVGSHTP-NH2-acetate salt (wherein K* = Lys(AEEAc-AEEAc-γ-Glu-17-carboxyheptadecanoyl))]
Human GLP-1R
  EC50: 1 nM
Human GIPR
  EC50: 0.029 nM

## Y[Aib]EGTFTSDYSI[Aib]LDKIAQQAFVQWLIAGGPSSGAPPPSCNTATCVLGRLSQELHRLQTYPRTNTGK([AEEA-AEEA-γGlu-C18 diacid])NTY-NH2 (disulfide 40-45 (inferred)) [SEQ ID NO. 45, Y-Aib-E-G-T-F-T-S-D-Y-S-I-Aib-LDKIAQQAFVQWLIAGGPSSGAPPPSCNTATCVLGRLSQELHRLQTYPRTNTGK*-N-T-Y-NH2-acetate salt (wherein K* is Lys(AEEAc-AEEAc-γ-Glu-17-carboxyheptadecanoyl))]
Human GLP-1R
  EC50: 0.416 nM
Human CalcitoninR
  EC50: 0.106 nM
Human Calc/RAMP3R (AMY3)
  EC50: 0.333 nM
Human GIPR
  EC50: 0.041 nM

## Y[Aib]EGTFTSDYSI[Aib]LDKIAQQAFVQWLIAGGPSSGAPPPSKCNTATCVLGRLSQELHRLQTYPRTNTK([AEEA-AEEA-γGlu-C18 diacid])SNTY-NH2 (disulfide 41-46 (inferred)) [SEQ ID NO. 52, Y-Aib-E-G-T-F-T-S-D-Y-S-I-Aib-LDKIAQQAFVQWLIAGGPSSGAPPPSKCNTATCVLGRLSQELHRLQTYPRTNTK*-S-N-T-Y-NH2-acetate salt (wherein K* is Lys(AEEAc-AEEAc-γ-Glu-17-carboxyheptadecanoyl))]
Human GLP-1R
  EC50: 0.59 nM
Human CalcitoninR
  EC50: 0.694 nM
Human Calc/RAMP3R (AMY3)
  EC50: 1.24 nM
Human GIPR
  EC50: 0.147 nM

B1: Y-Aib-E-G-T-F-T-S-D-Y-S-I-Aib-LDKIAQQAFVQWLIAGGPSSGAPPPSCNTATCVLGRLSQELHRLQTYPRTNTGK*-N-T-Y-NH2-acetate salt (wherein K* = … (peptide)
chain: Y[Aib]EGTFTSDYSI[Aib]LDKIAQQAFVQWLIAGGPSSGAPPPSCNTATCVLGRLSQELHRLQTYPRTNTGK([γGlu-γGlu-C20 diacid])NTY-NH2
modifications: also: acetate salt
Human GLP-1R
  EC50: 0.854 nM
Human CalcitoninR
  EC50: 0.388 nM
Human Calc/RAMP3R (AMY3)
  EC50: 0.218 nM
Human GIPR
  EC50: 0.011 nM
